# Earlier results in US9750700B2 (Natco Pharma Limited, priority 2011, dated 2017).
# Details: crystalline form of Imatinib mesylate
smiles,measurement,value
CS(=O)(=O)O.Cc1ccc(NC(=O)c2ccc(CN3CCN(C)CC3)cc2)cc1Nc1nccc(-c2cccnc2)n1 [α-crystalline form],hygroscopicity,hygroscopic
